Measurements: patent US10202361B2, “Pyridazinones as herbicides” (E I DU PONT DE NEMOURS AND COMPANY, priority 2014, dated 2019)

Assays:
Assay type in all cases: in vivo
[1] = system: barnyardgrass (Echinochloa crus-galli); assay: Test A pre-/postemergence greenhouse herbicide test; details: 0 to 100 scale (0 no effect, 100 complete control), approx. 10 d
Source text: (§1) Seeds of plant species selected from barnyardgrass (Echinochloa crus-galli), crabgrass, Large (large crabgrass, Digitaria sanguinalis), foxtail, giant (giant foxtail, Setaria faberii), morningglory (Ipomoea spp.), pigweed (Amaranthus retroflexus), velvetleaf (Abutilon theophrasti), wheat (Triticum aestivum), and corn (Zea mays) were planted into a blend of loam soil and sand and treated preemergence with a directed soil spray using test chemicals formulated in a non-phytotoxic solvent mixture which included a surfactant. At the same time these species were also treated with postemergence applications of test chemicals formulated in the same manner.
(§2) Plants ranged in height from 2 to 10 cm and were in the one- to two-leaf stage for the postemergence treatment. Treated plants and untreated controls were maintained in a greenhouse for approximately 10 d, after which time all treated plants were compared to untreated controls and visually evaluated for injury. Plant response ratings, summarized in Table A, are based on a 0 to 100 scale where 0 is no effect and 100 is complete control. A dash (-) response means no test result.

corn (Zea mays) = assay: as above; details: 0 to 100 scale (0 no effect, 100 complete control), approx. 10 d
Source text: as §1, §2

[2] = system: crabgrass, Large (large crabgrass, Digitaria sanguinalis); assay: as above; details: 0 to 100 scale (0 no effect, 100 complete control), approx. 10 d
Source text: as §1, §2

[3] = system: foxtail, giant (giant foxtail, Setaria faberii); assay: as above; details: 0 to 100 scale (0 no effect, 100 complete control), approx. 10 d
Source text: as §1, §2

[4] = system: morningglory (Ipomoea spp.); assay: as above; details: 0 to 100 scale (0 no effect, 100 complete control), approx. 10 d
Source text: as §1, §2

[5] = system: pigweed (Amaranthus retroflexus); assay: as above; details: 0 to 100 scale (0 no effect, 100 complete control), approx. 10 d
Source text: as §1, §2

[6] = system: velvetleaf (Abutilon theophrasti); assay: as above; details: 0 to 100 scale (0 no effect, 100 complete control), approx. 10 d
Source text: as §1, §2

[7] = system: wheat (Triticum aestivum); assay: as above; details: 0 to 100 scale (0 no effect, 100 complete control), approx. 10 d
Source text: as §1, §2

[8] = system: barnyardgrass (Echinochloa crus-galli); assay: Test B flooded paddy test; details: Flood, scale of 0 to 100, 0 is no effect, 100 is complete control, 13 to 15 d
Method: (§3) Plant species in the flooded paddy test selected from rice (Oryza sativa), small-flower sedge, umbrella (small-flower umbrella sedge, Cyperus difformis), ducksalad (Heteranthera limosa), and barnyardgrass (Echinochloa crus-galli) were grown to the 2-leaf stage for testing. At time of treatment, test pots were flooded to 3 cm above the soil surface, treated by application of test compounds directly to the paddy water, and then maintained at that water depth for the duration of the test. Treated plants and controls were maintained in a greenhouse for 13 to 15 d, after which time all species were compared to controls and visually evaluated. Plant response ratings, summarized in Table B, are based on a scale of 0 to 100 where 0 is no effect and 100 is complete control. A dash (-) response means no test result.

[9] = system: ducksalad (Heteranthera limosa); assay: Test B flooded paddy test; details: Flood, scale of 0 to 100, 0 is no effect, 100 is complete control, 13 to 15 d
Method: as §3

rice (Oryza sativa) = assay: Test B flooded paddy test; details: Flood, scale of 0 to 100, 0 is no effect, 100 is complete control, 13 to 15 d
Method: as §3

[10] = system: sedge, umbrella (small-flower umbrella sedge, Cyperus difformis); assay: Test B flooded paddy test; details: Flood, scale of 0 to 100, 0 is no effect, 100 is complete control, 13 to 15 d
Method: as §3

Structure (SMILES) | Plant response rating, Barnyardgrass ([1]; Postemergence, 125 g ai/ha) | Plant response rating, Barnyardgrass ([1]; Postemergence, 500 g ai/ha) | Plant response rating, Barnyardgrass ([1]; Preemergence, 125 g ai/ha) | Plant response rating, Barnyardgrass ([1]; Preemergence, 500 g ai/ha) | Plant response rating, Corn (corn (Zea mays); Postemergence, 125 g ai/ha) | Plant response rating, Corn (corn (Zea mays); Postemergence, 500 g ai/ha) | Plant response rating, Corn (corn (Zea mays); Preemergence, 125 g ai/ha) | Plant response rating, Corn (corn (Zea mays); Preemergence, 500 g ai/ha) | Plant response rating, Crabgrass, Large ([2]; Postemergence, 125 g ai/ha) | Plant response rating, Crabgrass, Large ([2]; Postemergence, 500 g ai/ha) | Plant response rating, Crabgrass, Large ([2]; Preemergence, 125 g ai/ha) | Plant response rating, Crabgrass, Large ([2]; Preemergence, 500 g ai/ha) | Plant response rating, Foxtail, Giant ([3]; Postemergence, 125 g ai/ha) | Plant response rating, Foxtail, Giant ([3]; Postemergence, 500 g ai/ha) | Plant response rating, Foxtail, Giant ([3]; Preemergence, 125 g ai/ha) | Plant response rating, Foxtail, Giant ([3]; Preemergence, 500 g ai/ha) | Plant response rating, Morningglory ([4]; Postemergence, 125 g ai/ha) | Plant response rating, Morningglory ([4]; Postemergence, 500 g ai/ha) | Plant response rating, Morningglory ([4]; Preemergence, 125 g ai/ha) | Plant response rating, Morningglory ([4]; Preemergence, 500 g ai/ha) | also measured
Cc1cc(=O)n(-c2ccccc2)nc1Oc1ccnc(C(F)(F)F)c1 [Compound 15] | 70 | 90 | 50 | 100 | 40 | 80 | 10 | 20 | 80 | 90 | 100 | 100 | 70 | 90 | 100 | 100 | 100 | 100 | 90 | 100 | Plant response rating, Pigweed ([5]; Postemergence, 125 g ai/ha): 100; Plant response rating, Pigweed ([5]; Postemergence, 500 g ai/ha): 100; Plant response rating, Pigweed ([5]; Preemergence, 125 g ai/ha): 100; Plant response rating, Pigweed ([5]; Preemergence, 500 g ai/ha): 100; Plant response rating, Velvetleaf ([6]; Postemergence, 125 g ai/ha): 70; Plant response rating, Velvetleaf ([6]; Postemergence, 500 g ai/ha): 90; Plant response rating, Velvetleaf ([6]; Preemergence, 125 g ai/ha): 30; Plant response rating, Velvetleaf ([6]; Preemergence, 500 g ai/ha): 70; Plant response rating, Wheat ([7]; Postemergence, 125 g ai/ha): 20; Plant response rating, Wheat ([7]; Postemergence, 500 g ai/ha): 60; Plant response rating, Wheat ([7]; Preemergence, 125 g ai/ha): 0; Plant response rating, Wheat ([7]; Preemergence, 500 g ai/ha): 20; Plant response rating, Barnyardgrass ([8]; 250 g ai/ha): 0; Plant response rating, Ducksalad ([9]; 250 g ai/ha): 70; Plant response rating, Rice (rice (Oryza sativa); 250 g ai/ha): 0; Plant response rating, Sedge, Umbrella ([10]; 250 g ai/ha): 70
CCOc1cc(=O)n(-c2ccc(C(F)(F)F)cc2)nc1Cc1ccnc(C(F)(F)F)c1 [Compound 18] | 30 | 40 | 60 | 90 | 20 | 40 | 10 | 10 | 60 | 80 | 100 | 100 | 20 | 50 | 100 | 100 | 30 | 70 | 30 | 30 | Plant response rating, Pigweed ([5]; Postemergence, 125 g ai/ha): 90; Plant response rating, Pigweed ([5]; Postemergence, 500 g ai/ha): 100; Plant response rating, Pigweed ([5]; Preemergence, 125 g ai/ha): 100; Plant response rating, Pigweed ([5]; Preemergence, 500 g ai/ha): 100; Plant response rating, Velvetleaf ([6]; Postemergence, 125 g ai/ha): 30; Plant response rating, Velvetleaf ([6]; Postemergence, 500 g ai/ha): 80; Plant response rating, Velvetleaf ([6]; Preemergence, 125 g ai/ha): 40; Plant response rating, Velvetleaf ([6]; Preemergence, 500 g ai/ha): 40; Plant response rating, Wheat ([7]; Postemergence, 125 g ai/ha): 10; Plant response rating, Wheat ([7]; Postemergence, 500 g ai/ha): 20; Plant response rating, Wheat ([7]; Preemergence, 125 g ai/ha): 0; Plant response rating, Wheat ([7]; Preemergence, 500 g ai/ha): 20; Plant response rating, Barnyardgrass ([8]; 125 g ai/ha): 0; Plant response rating, Ducksalad ([9]; 125 g ai/ha): 0; Plant response rating, Rice (rice (Oryza sativa); 125 g ai/ha): 0; Plant response rating, Sedge, Umbrella ([10]; 125 g ai/ha): 75
CCCOc1cc(=O)n(-c2ccc(C(F)(F)F)cc2)nc1Cc1ccnc(C(F)(F)F)c1 [Compound 19] | 10 | 20 | 0 | 10 | 10 | 10 | 0 | 0 | 10 | 20 | 70 | 90 | 10 | 20 | 40 | 70 | 10 | 30 | 0 | 10 | Plant response rating, Pigweed ([5]; Postemergence, 125 g ai/ha): 80; Plant response rating, Pigweed ([5]; Postemergence, 500 g ai/ha): 80; Plant response rating, Pigweed ([5]; Preemergence, 125 g ai/ha): 60; Plant response rating, Pigweed ([5]; Preemergence, 500 g ai/ha): 70; Plant response rating, Velvetleaf ([6]; Postemergence, 125 g ai/ha): 10; Plant response rating, Velvetleaf ([6]; Postemergence, 500 g ai/ha): 50; Plant response rating, Velvetleaf ([6]; Preemergence, 125 g ai/ha): 0; Plant response rating, Velvetleaf ([6]; Preemergence, 500 g ai/ha): 10; Plant response rating, Wheat ([7]; Postemergence, 125 g ai/ha): 0; Plant response rating, Wheat ([7]; Postemergence, 500 g ai/ha): 10; Plant response rating, Wheat ([7]; Preemergence, 125 g ai/ha): 0; Plant response rating, Wheat ([7]; Preemergence, 500 g ai/ha): 0; Plant response rating, Barnyardgrass ([8]; 125 g ai/ha): 0; Plant response rating, Ducksalad ([9]; 125 g ai/ha): 0; Plant response rating, Rice (rice (Oryza sativa); 125 g ai/ha): 0; Plant response rating, Sedge, Umbrella ([10]; 125 g ai/ha): 0
CN(C)c1cc(=O)n(-c2ccc(F)cc2)nc1Cc1ccnc(C(F)(F)F)c1 [Compound 20] | 50 | 90 | 20 | 90 | 30 | 60 | 0 | 10 | 50 | 90 | 100 | 100 | 40 | 80 | 80 | 100 | 50 | 100 | 10 | 60 | Plant response rating, Pigweed ([5]; Postemergence, 125 g ai/ha): 90; Plant response rating, Pigweed ([5]; Postemergence, 500 g ai/ha): 100; Plant response rating, Pigweed ([5]; Preemergence, 125 g ai/ha): 100; Plant response rating, Pigweed ([5]; Preemergence, 500 g ai/ha): 100; Plant response rating, Velvetleaf ([6]; Postemergence, 125 g ai/ha): 60; Plant response rating, Velvetleaf ([6]; Postemergence, 500 g ai/ha): 70; Plant response rating, Velvetleaf ([6]; Preemergence, 125 g ai/ha): 20; Plant response rating, Velvetleaf ([6]; Preemergence, 500 g ai/ha): 50; Plant response rating, Wheat ([7]; Postemergence, 125 g ai/ha): 0; Plant response rating, Wheat ([7]; Postemergence, 500 g ai/ha): 50; Plant response rating, Wheat ([7]; Preemergence, 125 g ai/ha): 0; Plant response rating, Wheat ([7]; Preemergence, 500 g ai/ha): 30; Plant response rating, Barnyardgrass ([8]; 125 g ai/ha): 0; Plant response rating, Ducksalad ([9]; 125 g ai/ha): 0; Plant response rating, Rice (rice (Oryza sativa); 125 g ai/ha): 0; Plant response rating, Sedge, Umbrella ([10]; 125 g ai/ha): 0
